The test system of one data set is Caco-2 cells. As to the kind of experiment: Perfusion test of first pass effect, small intestine compartment (Caco-2 single layer film in insert). The conditions noted are these: 240 μL of 62.5 μg/mL substrate solution in insert, HBSS perfusion, sampled every 30 minutes for 180 minutes, LC-MS-MS, FIG. 19. On the procedure:
(§1) In the present example, small intestine epithelial cells and liver cells were disseminated in separate compartments, and a first pass effect of a chemical substance was evaluated by using a device in which the respective compartments were connected via a flow path system. In the device described with reference to FIG. 1, Caco-2 cells were disseminated as model cells of the small intestine epithelial cells, and HepG2-CYP3A4 cells obtained by a genetic manipulation to excessively develop CYP3A4 in HepG2 cells were disseminated as model cells of the liver cells. Thus, the first pass effects (absorption and metabolism) of the chemical substance on two types of cells (the small intestine epithelial cells and the liver cells) were simultaneously evaluated.
(§2) • a) Caco-2 Cell • i) 0.4 mL of cell suspension was added to an inner side (an apical side) of a porous membrane filter at a density of 0.5 to 5×10^5 cells/cm^2 (e.g., 0.6×10^5 cells/cm^2). • ii) 0.8 mL of medium was added to an outer side (a basal side) of the porous membrane filter. • iii) The cells were cultured in a carbon dioxide gas incubator (5% of CO2 at 37° C. under humidification conditions) for about 3 weeks. An apical-side medium and a basal-side medium were appropriately changed.
(§3) Prior to use in a test, an electric resistance of a single layer film was measured by using an electric resistance measuring device.

Another data set concerns HepG2-CYP3A4 cells. As to the kind of experiment: Perfusion test of first pass effect, liver compartment (HepG2-CYP3A4 cells downstream of Caco-2 insert). The conditions noted are these: 240 μL of 62.5 μg/mL substrate solution in insert, HBSS perfusion, sampled every 30 minutes for 180 minutes, LC-MS-MS, FIG. 20. On the procedure: as §1, §2, §3

`Cc1ncc2n1-c1ccc(Cl)cc1C(c1ccccc1F)=NC2` [midazolam, Midazolam]: the “permeation amount of midazolam permeated through the Caco-2 single layer film” value in the data set on Caco-2 cells is “successive increase”. Moreover, the “permeation amount of midazolam” value with HepG2-CYP3A4 cells is reported as “successive increase”.

The record behind these values is US12655379B2, “Device for evaluation of chemical substance and method for evaluation of chemical substance” (SHINKO CHEMICAL CO., LTD., priority 2017, dated 2026).
